These compounds were tested against T1, human cloned 5-HT6 receptors (Homo sapiens, UniProt P50406) (assay: 5-HT6 binding affinity, [3H]-LSD displacement in membranes of Hela cells). Settings: not given.
T1 construct: expressed in transfected cells; host or cells: Hela cells
Protocol: The affinity of test compounds for the serotonin 5-HT6 receptor is evaluated in the following manner. Cultured Hela cells expressing human cloned 5-HT6 receptors are harvested and centrifuged at low speed (1,000×g) for 10.0 min to remove the culture media. The harvested cells are suspended in half volume of fresh physiological phosphate buffered saline solution and recentrifuged at the same speed. This operation is repeated. The collected cells are then homogenized in ten volumes of 50 mM Tris.HCl (pH 7.4) and 0.5 mM EDTA. The homogenate is centrifuged at 40,000×g for 30.0 min and the precipitate is collected. The obtained pellet is resuspended in 10 volumes of Tris.HCl buffer and recentrifuged at the same speed. The final pellet is suspended in a small volume of Tris.HCl buffer and the tissue protein content is determined in aliquots of 10-25 μl volumes. Bovine Serum Albumin is used as the standard in the protein determination according to the method described in Lowry et al., J. Biol. Chem., 193:265 (1951). The volume of the suspended cell membranes is adjusted to give a tissue protein concentration of 1.0 mg/ml of suspension. The prepared membrane suspension (10 times concentrated) is aliquoted in 1.0 ml volumes and stored at −70° C. until used in subsequent binding experiments.
The reaction is allowed to proceed in the dark for 120 min at room temperature, at which time, the bound ligand-receptor complex is filtered off on a 96 well unifilter with a Packard Filtermate® 196 Harvester. The bound complex caught on the filter disk is allowed to air dry and the radioactivity is measured in a Packard TopCount® equipped with six photomultiplier detectors, after the addition of 40.0 μl Microscint®-20 scintillant to each shallow well. The unifilter plate is heat-sealed and counted in a PackardTopCount® with a tritium efficiency of 31.0%.
Specific binding to the 5-HT6 receptor is defined as the total radioactivity bound less the amount bound in the presence of 10.0 μM unlabeled methiothepin. Binding in the presence of varying concentrations of test compound is expressed as a percentage of specific binding in the absence of test compound. The results are plotted as logit % bound versus log concentration of test compound. Nonlinear regression analysis of data points with a computer assisted program Prism® yields both the IC50 and the Ki values of test compounds with 95% confidence limits.
The amount of displacement by the test compound is given in percent (%) inhibition and is derived from the following equation: [formula] where B0 is the amount of CPM bound in the presence of the testing agent. NSB represents the CPM bound in the presence of a saturating concentration of a displacer and TB represents the total amount of CPM bound at zero (0) concentration of test compound.
Alternatively, a linear regression line of decline of data points is plotted, from which the IC50 value can be read off and the Ki value determined by solving the following equation: [formula] where L is the concentration of the radioactive ligand used and KD is the dissociation constant of the ligand for the receptor, both expressed in nM.

T1 sequence (P50406 whole entry): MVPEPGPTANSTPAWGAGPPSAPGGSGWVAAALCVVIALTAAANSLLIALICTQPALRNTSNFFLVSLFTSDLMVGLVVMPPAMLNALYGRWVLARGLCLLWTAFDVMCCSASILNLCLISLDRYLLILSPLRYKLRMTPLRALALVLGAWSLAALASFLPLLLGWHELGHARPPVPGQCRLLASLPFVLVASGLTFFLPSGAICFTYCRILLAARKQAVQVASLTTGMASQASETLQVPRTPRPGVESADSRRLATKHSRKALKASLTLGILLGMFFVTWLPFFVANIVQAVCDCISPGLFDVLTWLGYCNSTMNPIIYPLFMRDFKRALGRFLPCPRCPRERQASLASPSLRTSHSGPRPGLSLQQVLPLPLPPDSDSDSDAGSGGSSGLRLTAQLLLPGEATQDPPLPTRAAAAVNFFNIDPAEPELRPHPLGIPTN

Ki	Structure (SMILES)
2 nM	CC(=NNC(=N)N)c1cn(S(=O)(=O)c2ccc(N)cc2)c2ccccc12 [Example 23, 2-(1-{1-[(4-aminophenyl)sulfonyl]-1H-indol-3-yl}ethylidene)hydrazinecarboximidamide]
85 nM	CCC(=NNC(=N)N)c1cn(S(=O)(=O)c2ccc3ccccc3c2)c2ccc(F)cc12 [Example 120, 2-{1-[5-fluoro-1-(2-naphthylsulfonyl)-1H-indol-3-yl]propylidene}hydrazinecarboximidamide]
18 nM	CC(=NNC(=N)N)c1cn(S(C)(=O)=O)c2cc(F)ccc12 [Example 100, 2-{1-[6-fluoro-1-(methylsulfonyl)-1H-indol-3-yl]ethylidene}hydrazinecarboximidamide]
46 nM	CC(=NNC(=N)N)c1cn(S(=O)(=O)c2cn(C)cn2)c2ccccc12 [Example 47, 2-(1-{1-[(1-methyl-1H-imidazol-4-yl)sulfonyl]-1H-indol-3-yl}ethylidene)hydrazinecarboximidamide]

Same assay, conditions: test compound dose 100 nM; [3H]-LSD 3.0 nM

Structure (SMILES)	inhibition at 0.1 µM
N=C(N)NN=C(c1cn(S(=O)(=O)c2ccccc2)c2ccc(Cl)cc12)C1CC1 [Example 86, 2-[[5-chloro-1-(phenylsulfonyl)-1H-indol-3-yl](cyclopropyl)methylidene]hydrazinecarboximidamide]	78.1%
CC(=NNC(=N)NCc1ccccn1)c1cn(S(=O)(=O)c2ccccc2)c2ccccc12 [Example 126, 2-{1-[1-(phenylsulfonyl)-1H-indol-3-yl]ethylidene}-N-(pyridin-2-ylmethyl)hydrazinecarboximidamide]	37.7%
CS(=O)(=O)n1cc(C(=NNC(=N)N)C2CC2)c2ccccc21 [Example 57, 2-{cyclopropyl[1-(methylsulfonyl)-1H-indol-3-yl]methylidene}hydrazinecarboximidamide]	40.4%
CC(=NNC(=N)N)c1cn(S(=O)(=O)c2sc3ccc(Cl)cc3c2C)c2ccccc12 [Example 35, 2-(1-{1-[(5-chloro-3-methyl-1-benzothien-2-yl)sulfonyl]-1H-indol-3-yl}ethylidene)hydrazinecarboximidamide]	39.1%
CC(=NNC(=N)N)c1cn(S(=O)(=O)c2cc(Cl)c(Cl)s2)c2ccccc12 [Example 42, 2-(1-{1-[(4,5-dichlorothien-2-yl)sulfonyl]-1H-indol-3-yl}ethylidene)hydrazinecarboximidamide]	46.3%
CC(=NNC(=N)N)c1cn(S(=O)(=O)c2c(C)noc2C)c2ccccc12 [Example 43, 2-(1-{1-[(3,5-dimethylisoxazol-4-yl)sulfonyl]-1H-indol-3-yl}ethylidene)hydrazinecarboximidamide]	68.9%
CC(=NNC(=N)N)c1cn(S(=O)(=O)c2cn(C)cn2)c2ccccc12 [Example 47, 2-(1-{1-[(1-methyl-1H-imidazol-4-yl)sulfonyl]-1H-indol-3-yl}ethylidene)hydrazinecarboximidamide]	81.1%
CC(=NNC(=N)NCCO)c1cn(S(=O)(=O)c2ccccc2)c2ccccc12 [Example 127, N-(2-hydroxyethyl)-2-{1-[1-(phenylsulfonyl)-1H-indol-3-yl]ethylidene}hydrazinecarboximidamide]	83.3%
CC(=NNC(=N)N)c1cn(S(=O)(=O)c2ccc(-c3ccccc3)cc2)c2ccccc12 [Example 26, 2-{1-[1-([1,1′-biphenyl]-4-ylsulfonyl)-1H-indol-3-yl]ethylidene}hydrazinecarboximidamide]	39.7%

Results, then the compound that gave them:

inhibition at 0.1 µM	Structure (SMILES)
58.9%	COc1ccc(S(=O)(=O)n2cc(C(=NNC(=N)N)C3CC3)c3ccccc32)cc1 [Example 63, 2-(cyclopropyl{1-[(4-methoxyphenyl)sulfonyl]-1H-indol-3-yl}methylidene)hydrazinecarboximidamide]
92.9%	CC(=NNC(=N)N)c1cn(S(=O)(=O)c2ccc(N)cc2)c2ccccc12 [Example 23, 2-(1-{1-[(4-aminophenyl)sulfonyl]-1H-indol-3-yl}ethylidene)hydrazinecarboximidamide]
82.4%	CC(=NNC(=N)N)c1cn(S(=O)(=O)c2ccccc2)c2ccc(F)cc12 [Example 19, 2-{1-[5-fluoro-1-(phenylsulfonyl)-1H-indol-3-yl]ethylidene}hydrazinecarboximidamide]
78.2%	COc1ccc(S(=O)(=O)n2cc(C(=NNC(=N)N)C3CC3)c3ccc(F)cc32)cc1OC [Example 117, 2-(cyclopropyl{1-[(3,4-dimethoxyphenyl)sulfonyl]-6-fluoro-1H-indol-3-yl}methylidene)hydrazinecarboximidamide]
85.2%	N=C(N)NN=C(c1cn(S(=O)(=O)c2ccccc2)c2cc(F)ccc12)C1CC1 [Example 114, 2-{cyclopropyl[6-fluoro-1-(phenylsulfonyl)-1H-indol-3-yl]methylidene}hydrazinecarboximidamide]
33.3%	CC(=NNC(=N)N)c1cn(S(=O)(=O)c2cc(Cl)ccc2Cl)c2ccccc12 [Example 40, 2-(1-{1-[(2,5-dichlorophenyl)sulfonyl]-1H-indol-3-yl}ethylidene)hydrazinecarboximidamide]
84.6%	CCCCS(=O)(=O)n1cc(C(C)=NNC(=N)N)c2cc(Cl)ccc21 [Example 75, 2-{1-[1-(butylsulfonyl)-5-chloro-1H-indol-3-yl]ethylidene}hydrazinecarboximidamide]
83.8%	CC(=NNC(=N)N)c1cn(S(C)(=O)=O)c2cc(F)ccc12 [Example 100, 2-{1-[6-fluoro-1-(methylsulfonyl)-1H-indol-3-yl]ethylidene}hydrazinecarboximidamide]
74%	COc1ccc(S(=O)(=O)n2cc(C(=NNC(=N)N)C3CC3)c3cc(Cl)ccc32)cc1 [Example 80, 2-[{5-chloro-1-[(4-methoxyphenyl)sulfonyl]-1H-indol-3-yl}(cyclopropyl)methylidene]hydrazinecarboximidamide]

Same assay, conditions: test compound dose 1000 nM; [3H]-LSD 3.0 nM

Structure (SMILES)	% Inhibition
Cc1ccc(S(=O)(=O)n2cc(C=NNC(=N)N)c3ccccc32)cc1 [Example 3, 2-({1-[(4-methylphenyl)sulfonyl]-1H-indol-3-l}methylidene)hydrazinecarboximidamide]	71.0%

Same assay, conditions: test compound dose 1000 nM; [3H]-LSD 3.0 nM; read-out: % Inhibition

Structure (SMILES)	inhibition at 1 µM
CC(=NNC(=N)N)c1c(-c2ccc(F)c(F)c2)n(S(=O)(=O)c2ccccc2)c2ccccc12 [Example 13, 2-{1-[2-(3,4-difluorophenyl)-1-(phenylsulfonyl)-1H-indol-3-yl]ethylidene}hydrazinecarboximidamide]	86%
Cc1ccc(S(=O)(=O)n2cc(C=NN(C)C3=NCCN3)c3ccccc32)cc1 [Example 4, 1-[(4-methylphenyl)sulfonyl]-1H-indole-3-carbaldehyde 4,5-dihydro-1H-imidazol-2-yl(methyl)hydrazone]	71.9%
N=C(N)NN=C(c1cn(S(=O)(=O)c2ccc3ccccc3c2)c2ccc(Cl)cc12)C1CC1 [Example 83, 2-[[5-chloro-1-(2-naphthylsulfonyl)-1H-indol-3-yl](cyclopropyl)methylidene]hydrazinecarboximidamide]	89.3%

The remaining lines, values ahead:

inhibition at 1 µM	Structure (SMILES)
73.5%	CCCCC(=NNC(=N)N)c1cn(S(=O)(=O)c2ccc(OC)c(OC)c2)c2cc(F)ccc12 [Example 116, 2-(1-{1-[(3,4-dimethoxyphenyl)sulfonyl]-6-fluoro-1H-indol-3-yl}pentylidene)hydrazinecarboximidamide]
77.7%	CCCCC(=NNC(=N)N)c1cn(S(=O)(=O)CCCC)c2ccccc12 [Example 59, 2-{1-[1-(butylsulfonyl)-1H-indol-3-yl]pentylidene}hydrazinecarboximidamide]
88.9%	COc1ccc(S(=O)(=O)n2cc(C(C)=NNC(=N)N)c3cc(Cl)ccc32)cc1OC [Example 87, 2-(1-{5-chloro-1-[(3,4-dimethoxyphenyl)sulfonyl]-1H-indol-3-yl}ethylidene)hydrazinecarboximidamide]
65.6%	CCCCC(=NNC(=N)N)c1cn(S(=O)(=O)c2ccc(OC)c(OC)c2)c2ccc(Cl)cc12 [Example 88, 2-(1-{5-chloro-1-[(3,4-dimethoxyphenyl)sulfonyl]-1H-indol-3-yl}pentylidene)hydrazinecarboximidamide]
91.5%	CC(C)C(=NNC(=N)N)c1cn(S(=O)(=O)c2ccccc2)c2ccccc12 [Example 5, 2-{2-methyl-1-[1-(phenylsulfonyl)-1H-indol-3-yl]propylidene}hydrazinecarboximidamide]
9%	CCCCC(=NNC(=N)N)c1c(-c2ccc(Cl)cc2)n(S(C)(=O)=O)c2ccccc12 [Example 91, 2-{1-[2-(4-chlorophenyl)-1-(methylsulfonyl)-1H-indol-3-yl]pentylidene}hydrazinecarboximidamide]
76.9%	CCCCC(=NNC(=N)N)c1cn(S(C)(=O)=O)c2ccccc12 [Example 56, 2-{1-[1-(methylsulfonyl)-1H-indol-3-yl]pentylidene}hydrazinecarboximidamide]

Reference: patent publication US6906095B2, “Indolylalkylidenehydrazine-carboximidamide derivatives as 5-hydroxytryptamine-6 ligands” (Wyeth, priority 2002, dated 2005)
